In one experiment the test system is mice treated with MPTP. Particulars: cited from earlier work.
Experiment [1] has as its target recombinant human mGlu4 expressed in HEK293 cells (Homo sapiens (Human), UniProt Q14833). The experiment can be described thus: Ca2+ mobilization in vitro assay, mGlu4 PAM (with EC20 of L-AP4). The note with it: for Emax: HEK293, maximal response in % of the maximal stimulatory effect obtained with saturating concentrations of L-AP4, read-out: Eff. (%); for EC50: human mGlu4 in HEK293 cells, Ca2+ mobilization, L-AP4 at EC20, read-out: EC50 (nM) mGlu4PAM. The experiment is classed as cell-based. As for the experimental part: Determination of EC50 Values Using a Ca2+ Mobilization in vitro Assay on Recombinant Human mGlu4 Expressed in HEK293 Cells:
A monoclonal HEK-293 cell line stably transfected with a cDNA encoding for the human mGlu4 receptor was generated; for the work with mGlu4 Positive Allosteric Modulators (PAMs), a cell line with low receptor expression levels and low constitutive receptor activity was selected to allow the differentiation of agonistic versus PAM activity. Cells were cultured according to standard protocols (Freshney, 2000) in Dulbecco's Modified Eagle Medium with high glucose supplemented with 1 mM glutamine, 10% (vol/vol) heat-inactivated bovine calf serum, Penicillin/Streptomycin, 50 μg/ml hygromycin and 15 μg/ml blasticidin (all cell culture reagents and antibiotics from Invitrogen, Basel, Switzerland). • About 24 hrs before an experiment, 5×10^4 cells/well were seeded in poly-D-lysine coated, black/clear-bottomed 96-well plates. The cells were loaded with 2.5 μM Fluo-4AM in loading buffer (1×HBSS, 20 mM HEPES) for 1 hr at 37° C. and washed five times with loading buffer. The cells were transferred into a Functional Drug Screening System 7000 (Hamamatsu, Paris, France), and 11 half logarithmic serial dilutions of test compound at 37° C. were added and the cells were incubated for 10-30 min. with on-line recording of fluorescence. Following this pre-incubation step, the agonist (2S)-2-amino-4-phosphonobutanoic acid (L-AP4) was added to the cells at a concentration corresponding to EC20 with on-line recording of fluorescence; in order to account for day-to-day variations in the responsiveness of cells, the EC20 of L-AP4 was determined immediately ahead of each experiment by recording of a full dose-response curve of L-AP4.
Responses were measured as peak increase in fluorescence minus basal (i.e. fluorescence without addition of L-AP4), normalized to the maximal stimulatory effect obtained with saturating concentrations of L-AP4. Graphs were plotted with the % maximal stimulatory using XLfit, a curve fitting program that iteratively plots the data using Levenburg Marquardt algorithm. The single site competition analysis equation used was y=A+((B−A)/(1+((x/C)D))), where y is the % maximal stimulatory effect, A is the minimum y, B is the maximum y, C is the EC50, x is the log 10 of the concentration of the competing compound and D is the slope of the curve (the Hill Coefficient). From these curves the EC50 (drug concentration at which 50% of the maximal receptor activation was achieved), the Hill coefficient as well as the maximal response in % of the maximal stimulatory effect obtained with saturating concentrations of L-AP4 were calculated (see FIG. 1).
A depression of the signal observed after addition of the EC20 concentration of L-AP4 was indicative of an inhibitory activity of the test compound.

The next experiment concerns EPM in rats. The note with it: cited from earlier work.
Experiment [2] deals with marble burying test in mice. Particulars: reported by Addex 2010; cited from earlier work.
In a further experiment the test system is EPM in mice. The note with it: reported by Addex 2010; cited from earlier work.
Experiment [3] concerns 6-OHDA rodent model of PD. The note with it: cited from earlier work.

Each structure is given as a SMILES string.

Chain of recombinant human mGlu4 expressed in HEK293 cells (Q14833 33-912): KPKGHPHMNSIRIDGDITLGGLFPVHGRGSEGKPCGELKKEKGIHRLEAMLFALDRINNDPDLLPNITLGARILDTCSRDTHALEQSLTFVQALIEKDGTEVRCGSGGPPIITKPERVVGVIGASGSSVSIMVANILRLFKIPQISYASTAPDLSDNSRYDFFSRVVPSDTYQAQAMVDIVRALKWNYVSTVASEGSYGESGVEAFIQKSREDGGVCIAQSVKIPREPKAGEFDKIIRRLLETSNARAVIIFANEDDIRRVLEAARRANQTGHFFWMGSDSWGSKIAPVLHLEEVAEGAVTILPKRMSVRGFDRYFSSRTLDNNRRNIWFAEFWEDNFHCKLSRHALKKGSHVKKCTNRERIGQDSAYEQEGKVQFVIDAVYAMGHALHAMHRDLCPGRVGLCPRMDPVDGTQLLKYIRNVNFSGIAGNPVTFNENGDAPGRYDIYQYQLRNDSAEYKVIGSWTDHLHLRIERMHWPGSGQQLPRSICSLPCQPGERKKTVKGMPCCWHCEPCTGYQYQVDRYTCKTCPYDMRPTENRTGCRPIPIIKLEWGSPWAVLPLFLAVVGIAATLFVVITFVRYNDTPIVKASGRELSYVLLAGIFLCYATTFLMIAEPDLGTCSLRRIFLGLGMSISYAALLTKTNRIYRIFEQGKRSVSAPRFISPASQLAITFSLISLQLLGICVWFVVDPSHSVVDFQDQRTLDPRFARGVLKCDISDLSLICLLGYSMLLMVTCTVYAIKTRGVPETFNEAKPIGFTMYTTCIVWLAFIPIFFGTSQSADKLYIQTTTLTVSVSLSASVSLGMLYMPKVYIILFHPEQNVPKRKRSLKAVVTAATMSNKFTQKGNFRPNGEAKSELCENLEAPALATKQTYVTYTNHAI

With `O=C(Nc1ccccc1)C12CC1/C(=N\O)c1ccccc1O2` (single isomer, unassigned; (-)) [(−)-PHCCC], in the experiment with mice treated with MPTP, the nigrostriatal degeneration result is given as “reduced nigrostriatal degeneration”.

With `O=C1C2Cc3ccccc3CN2C(=O)N1c1c(F)cc(C#Cc2ccccc2)cc1F` (racemic) [Example 9, (10aRS)-2-[2,6-Difluoro-4-(2-phenylethynyl)phenyl]-10,10a-dihydro-5H-imidazo[1,5-b]isoquinoline-1,3-dione], in experiment [1], the Emax amounted to 99% and the EC50 was found to be 56 nM.

For `CC(C)N1CC(=O)N(c2c(F)cc(C#Cc3ccccc3)cc2F)C1=O` [Example 1, 3-[2,6-Difluoro-4-(2-phenylethynyl)phenyl]-1-isopropyl-imidazolidine-2,4-dione], in experiment [1], the Emax amounted to 154% and the EC50 turned out to be 441 nM.

On to `CC1CCCC2C(=O)N(c3ccc(C#Cc4ccccc4)cc3Cl)C(=O)N12` (racemic) [Example 10, (5RS,8aRS)-2-[2-Chloro-4-(2-phenylethynyl)phenyl]-5-methyl-6,7,8,8a-tetrahydro-5H-imidazo[1,5-a]pyridine-1,3-dione], for which, in experiment [1], the Emax worked out at 232% and the EC50 stood at 256 nM.

For `CC(C)(C)N1CC(=O)N(c2c(F)cc(C#Cc3ccccc3)cc2F)C1=O` [Example 8, 1-tert-Butyl-3-[2,6-difluoro-4-(2-phenylethynyl)phenyl]imidazolidine-2,4-dione], in experiment [1], the Emax was 143% and the EC50 is 222 nM.

In the case of `Cc1ccnc(Nc2nc(-c3cn[nH]c3)c(C)s2)n1` [ADX88178], the “profile in rat EPM test” value in the experiment with EPM in rats (rat, after oral dosing) is reported as “anxiolytic-like profile”. The “activity in EPM” value in the experiment with EPM in rats (rats, reported by Addex 2010) was “active”; in the experiment with EPM in mice it was “active”. Also, in experiment [2], the “activity in marble burying test” value is “active”.

Regarding `CC1COCC2C(=O)N(c3c(F)cc(C#Cc4ccccc4)cc3F)C(=O)N12` (racemic) [Example 4, (5RS,8aRS)-2-[2,6-Difluoro-4-(2-phenylethynyl)phenyl]-5-methyl-5,6,8,8a-tetrahydroimidazo[5,1-c][1,4]oxazine-1,3-dione], in experiment [1], the Emax worked out at 188% and the EC50 stood at 204 nM.

Regarding `CC(C)N1C(=O)N(c2c(F)cc(C#Cc3ccccc3)cc2F)C(=O)C1C` (racemic) [Example 2, (5RS)-3-[2,6-Difluoro-4-(2-phenylethynyl)phenyl]-1-isopropyl-5-methyl-imidazolidine-2,4-dione], in experiment [1], the Emax stood at 107% and the EC50 was 104 nM.

Consider `CC1CCCC2C(=O)N(c3c(F)cc(C#Cc4cccnc4)cc3Cl)C(=O)N12` (racemic) [Example 11, (5RS,8aRS)-2-[2-Chloro-6-fluoro-4-[2-(3-pyridyl)ethynyl]phenyl]-5-methyl-6,7,8,8a-tetrahydro-5H-imidazo[1,5-a]pyridine-1,3-dione], for which, in experiment [1], the Emax stood at 140% and the EC50 worked out at 180 nM.

Consider `CC1(C)C(=O)N(c2c(F)cc(C#Cc3ccccc3)cc2F)C(=O)N1c1ccccc1` [Example 7, 3-[2,6-Difluoro-4-(2-phenylethynyl)phenyl]-5,5-dimethyl-1-phenyl-imidazolidine-2,4-dione], for which, in experiment [1], the Emax worked out at 222% and the EC50 was determined as 242 nM.

Regarding `N[C@@H](CCP(=O)(O)O)C(=O)O` [L-AP4, (2S)-2-amino-4-phosphonobutanoic acid], the neuroprotective effects entry in experiment [3] is reported as “demonstrated neuroprotective effects”.

`O=C1C2CCc3ccccc3N2C(=O)N1c1c(F)cc(C#Cc2ccccc2)cc1F` (racemic) [Example 6, (3aRS)-2-[2,6-Difluoro-4-(2-phenylethynyl)phenyl]-4,5-dihydro-3aH-imidazo[1,5-a]quinoline-1,3-dione]: in experiment [1], the Emax amounted to 110% and the EC50 stood at 74 nM.

Consider `O=C1C2Cc3ccccc3N2C(=O)N1c1c(F)cc(C#Cc2ccccc2)cc1F` (racemic) [Example 5, (3aRS)-2-[2,6-Difluoro-4-(2-phenylethynyl)phenyl]-3a,4-dihydroimidazo[1,5-a]indole-1,3-dione], for which, in experiment [1], the Emax came out at 103% and the EC50 stood at 188 nM.

As for `CC(C)N1C(=O)N(c2c(F)cc(C#Cc3ccccc3)cc2F)C(=O)C12COC2` [Example 13, 7-[2,6-Difluoro-4-(2-phenylethynyl)phenyl]-5-isopropyl-2-oxa-5,7-diazaspiro[3.4]octane-6,8-dione], in experiment [1], the Emax is 100% and the EC50 came to 230 nM.

As to `CC(C)N1C(=O)N(c2c(F)cc(C#Cc3ccccc3)cc2F)C(=O)C1(C)C` [Example 3, 3-[2,6-Difluoro-4-(2-phenylethynyl)phenyl]-1-isopropyl-5,5-dimethyl-imidazolidine-2,4-dione], in experiment [1], the Emax was 98% and the EC50 stood at 286 nM.

As for `O=C1CN(C2CC2)C(=O)N1c1c(F)cc(C#Cc2ccccc2)cc1F` [Example 12, 1-Cyclopropyl-3-[2,6-difluoro-4-(2-phenylethynyl)phenyl]imidazolidine-2,4-dione], in experiment [1], the Emax came out at 113% and the EC50 came to 370 nM.
